Measured values as given in ChEMBL document CHEMBL1155647, “New eudesmane sesquiterpenes from Plectranthus cylindraceus” (J Nat Prod, 2000).
Activity calls are given as the source filed them.

Columns and labels:
Bacillus subtilis = test: Antimicrobial activity against Bacillus subtilis ATCC 6633 at 100 ug/mL by agar dilution assay; assay type: functional, organism-based
Candida albicans = test: Antimicrobial activity against Candida albicans ATCC 10231 at 100 ug/mL by agar dilution assay; assay type: functional, organism-based
Escherichia coli = test: Antimicrobial activity against Escherichia coli ATCC 25922 at 100 ug/mL by agar dilution assay; assay type: functional, organism-based
[1] = system: Mycolicibacterium smegmatis; test: Antimicrobial activity against Mycobacterium smegmatis ATCC 35797 at 100 ug/mL by agar dilution assay; assay type: functional, organism-based
Pseudomonas aeruginosa = test: Antimicrobial activity against Pseudomonas aeruginosa ATCC 15442 at 100 ug/mL by agar dilution assay; assay type: functional, organism-based
Staphylococcus aureus = test: Antimicrobial activity against Staphylococcus aureus ATCC 29213 at 100 ug/mL by agar dilution assay; assay type: functional, organism-based
MCF7 = test: Anticancer activity against human MCF7 cells; assay type: functional, cell-based
NCI-H460 = test: Anticancer activity against human NCI-H460 cells; assay type: functional, cell-based
SF-268 = test: Anticancer activity against human SF268 cells; assay type: functional, cell-based

Measured: Activity

CC(=O)OC[C@@]12CC[C@@H](C(C)C)[C@@H](O)[C@@H]1C(C)=CC(=O)C2
not listed: MCF7 | NCI-H460 | SF-268
inactive: all other assays above

COc1ccc(-c2oc3cc(OC)c(OC)c(O)c3c(=O)c2OC)cc1O
not listed: MCF7 | NCI-H460 | SF-268
inactive: all other assays above

COc1cc(O)c2c(=O)c(OC)c(-c3ccc(O)c(OC)c3)oc2c1
not listed: MCF7 | NCI-H460 | SF-268
inactive: all other assays above

CC(=O)O[C@@H]1[C@H](C(C)C)CC[C@@]2(CO)CC(=O)C=C(C)[C@@H]12
inactive: all assays above

COc1cc2oc(-c3ccc(O)c(O)c3)c(OC)c(=O)c2c(O)c1OC
not listed: MCF7 | NCI-H460 | SF-268
inactive: all other assays above

CC(=O)OC[C@@]12CC[C@@H](C(C)C)[C@@H](OC(C)=O)[C@@H]1C(C)=CC(=O)C2
inactive: all assays above
